Assay results taken from patent US20260083130A1, “NOVEL SULFONATE BENZAMIDE COMPOUNDS FOR CONTROLLING INVERTEBRATE PESTS” (FMC CORPORATION, priority 2022, published 2026).

Legend:
Assay type in all cases: in vivo
[1] = test system: Corn Planthopper (Peregrinus maidis (Ashmead)); experiment: Test C: control of Corn Planthopper, spray on corn plant; conditions: 144 h, nymphs, assessed after 6 days; for mortality at 50 ppm: sprayed at 50 ppm; for mortality at 250 ppm: sprayed at 250 ppm
Procedure: (§1) Test compounds were formulated using a solution containing 10% acetone, 90% water and 300 ppm Activator 90® non-ionic surfactant (Loveland Products, Loveland, Colorado, USA). The formulated compounds were applied in 1 mL of liquid through an atomized nozzle positioned 1.27 cm (0.5 inches) above the top of each test unit. Test compounds were sprayed at the rates indicated, and each test was replicated three times.
For evaluating control of Corn Planthopper (Peregrinus maidis (Ashmead)) through contact and/or systemic means, the test unit consisted of a small open container with a 3- to 4-day-old corn (maize) plant inside. White sand was added to the top of the soil prior to application of the test compound.
Test compounds were formulated and sprayed at 250 and 50 ppm with three replications as described above. After spraying of the formulated test compound, the test units were allowed to dry for 1 h before they were post-infested with ˜15-20 nymphs (18-to-21-day-old). A black, screened cap was placed on the top of each test unit, and the test units were held for 6 days in a growth chamber at 22 to 24° C. and 50-70% relative humidity. Each test unit was then visually assessed for insect mortality.

[2] = test system: Green Peach Aphid (Myzus persicae (Sulzer)); experiment: Test D: control of Green Peach Aphid, spray on radish plant; conditions: 144 h, assessed after 6 days; for mortality at 250 ppm: sprayed at 250 ppm
Procedure: as §1
For evaluating control of Green Peach Aphid (Myzus persicae (Sulzer)) through contact and/or systemic means, the test unit consisted of a small open container with a 12- to 15-day-old radish plant inside. Prior to compound application, each test unit was pre-infested by placing on a leaf of the test plant 30-40 aphids on a piece of leaf excised from a culture plant (cut-leaf method). The aphids moved onto the test plant as the leaf piece desiccated. After pre-infestation, the soil of the test unit was covered with a layer of sand.
Test compounds were formulated and sprayed at 250 and 50 ppm with three replications as described above. After spraying of the formulated test compound, each test unit was allowed to dry for 1 hour and then a black, screened cap was placed on top. The test units were held for 6 days in a growth chamber at 19-21° C. and 50-70% relative humidity. Each test unit was then visually assessed for insect mortality.

[3] = test system: cotton melon aphid (Aphis gossypii (Glover)); experiment: Test E: control of cotton melon aphid, spray on okra plant; conditions: 144 h, assessed after 6 days; for mortality at 50 ppm: sprayed at 50 ppm; for mortality at 50 ppm / mortality at 250 ppm: read-out: mortality; for mortality at 250 ppm: sprayed at 250 ppm; for mortality at 2 ppm: sprayed at 2 ppm; for mortality at 10 ppm: sprayed at 10 ppm
Procedure: as §1
For evaluating control of cotton melon aphid (Aphis gossypii (Glover)) through contact and/or systemic means, the test unit consisted of a small open container with a 5-day-old okra plant inside. This was pre-infested with 30-40 insects on a piece of leaf according to the cut-leaf method, and the soil of the test unit was covered with a layer of sand.
Test compounds were formulated and sprayed at 250, 50, 10, and 2 ppm with three replications as described above. After spraying, the test units were maintained in a growth chamber for 6 days at 19° C. and 70% relative humidity. Each test unit was then visually assessed for insect mortality.

C[C@@H](NC(=O)c1cc(Cl)cc(OS(=O)(=O)C(F)(F)F)c1)c1ncnn1-c1ncccn1 [Compound 9, 3-Chloro-5-[[[1-[1-(2-pyrimidinyl)-1H-1,2,4-triazol-5-yl]ethyl]amino]carbonyl]phenyl 1,1,1-trifluoromethanesulfonate; (+) enantiomer]
≥ 80%: mortality at 50 ppm [1] | mortality at 250 ppm [1] | mortality at 250 ppm [2] | mortality at 50 ppm [3] | mortality at 250 ppm [3]

CCN(C(=O)c1cc(OS(=O)(=O)C(F)(F)F)cc(C(F)(F)F)c1)C(C)c1ncnn1-c1ncccn1 (stereo not shown) [Compound 27, 3-[[ethyl[1-[1-(2-pyrimidinyl)-1H-1,2,4-triazol-5-yl]ethyl]amino]carbonyl]-5-(trifluoromethyl)phenyl 1,1,1-trifluoromethanesulfonate]
≥ 80%: mortality at 250 ppm [1] | mortality at 50 ppm [3] | mortality at 250 ppm [3]

CC(NC(=O)c1cccc(OS(=O)(=O)C(F)(F)F)c1)c1ncnn1-c1ncccn1 (stereo not shown) [Compound 3, 3-[[[1-[1-(2-Pyrimidinyl)-1H-1,2,4-triazol-5-yl]ethyl]amino]carbonyl]phenyl 1,1,1-trifluoromethanesulfonate]
≥ 80%: mortality at 250 ppm [1] | mortality at 50 ppm [3] | mortality at 250 ppm [3]

CC(c1ncnn1-c1ncccn1)N(CC1CC1)C(=O)c1cc(Cl)cc(OS(=O)(=O)C(F)(F)F)c1 (stereo not shown) [Compound 10, 3-Chloro-5-[[(cyclopropylmethyl)[1-[1-(2-pyrimidinyl)-1H-1,2,4-triazol-5-yl]ethyl]amino]carbonyl]phenyl 1,1,1-trifluoromethanesulfonate]
≥ 80%: mortality at 50 ppm [1] | mortality at 250 ppm [1] | mortality at 2 ppm [3] | mortality at 10 ppm [3] | mortality at 50 ppm [3] | mortality at 250 ppm [3]

CC(NC(=O)c1cc(Cl)cc(OS(=O)(=O)C(F)(F)F)c1)c1ncnn1-c1ncccn1 (stereo not shown) [Compound 4, 3-Chloro-5-[[[1-[1-(2-pyrimidinyl)-1H-1,2,4-triazol-5-yl]ethyl]amino]carbonyl]phenyl 1,1,1-trifluoromethanesulfonate]
≥ 80%: mortality at 250 ppm [1] | mortality at 50 ppm ([2]; sprayed at 50 ppm) | mortality at 250 ppm [2] | mortality at 2 ppm [3] | mortality at 10 ppm [3] | mortality at 50 ppm [3] | mortality at 250 ppm [3]

CC(c1ncnn1-c1ncccn1)N(CC1CC1)C(=O)c1cc(OS(=O)(=O)C(F)(F)F)cc(C(F)(F)F)c1 (stereo not shown) [Compound 11, 3-[[(Cyclopropylmethyl)[1-[1-(2-pyrimidinyl)-1H-1,2,4-triazol-5-yl]ethyl]amino]carbonyl]-5-(trifluoromethyl)phenyl 1,1,1-trifluoromethanesulfonate]
≥ 80%: mortality at 50 ppm [1] | mortality at 250 ppm [1] | mortality at 250 ppm [2] | mortality at 2 ppm [3] | mortality at 10 ppm [3] | mortality at 50 ppm [3] | mortality at 250 ppm [3]

CCN(C(=O)c1cc(Cl)cc(OS(=O)(=O)C(F)(F)F)c1)C(C)c1ncnn1-c1ncccn1 (stereo not shown) [Compound 50, 3-chloro-5-[[ethyl[1-[1-(2-pyrimidinyl)-1H-1,2,4-triazol-5-yl]ethyl]amino]carbonyl]phenyl 1,1,1-trifluoromethanesulfonate]
≥ 80%: mortality at 250 ppm [1] | mortality at 250 ppm [2] | mortality at 50 ppm [3] | mortality at 250 ppm [3]

CC(c1ncnn1-c1ncccn1)N(C)C(=O)c1cc(Cl)cc(OS(=O)(=O)C(F)(F)F)c1 (stereo not shown) [Compound 72]
≥ 80%: mortality at 50 ppm [1] | mortality at 250 ppm [1] | mortality at 250 ppm [2] | mortality at 2 ppm [3] | mortality at 10 ppm [3] | mortality at 50 ppm [3] | mortality at 250 ppm [3]

C[C@@H](NC(=O)c1cc(OS(=O)(=O)C(F)(F)F)cc(C(F)(F)F)c1)c1ncnn1-c1ncccn1 [Compound 13, (R)3-[[[1-[1-(2-Pyrimidinyl)-1H-1,2,4-triazol-5-yl]ethyl]amino]carbonyl]-5-(trifluoromethyl)phenyl 1,1,1-trifluoromethanesulfonate; (+) enantiomer]
≥ 80%: mortality at 50 ppm [1] | mortality at 250 ppm [1] | mortality at 250 ppm [2] | mortality at 2 ppm [3] | mortality at 10 ppm [3] | mortality at 50 ppm [3] | mortality at 250 ppm [3]
